In patent US11992011B2, “Compounds for controlling plant pathogens” (VIB VZW, priority 2017, dated 2024):

How the values were obtained:
Meloidogyne graminicola [1] = assay: M. graminicola infection in wild type and OsWRKY45 knockdown rice (Example 16); type: in vivo; settings: for Likelihood of necrosis / Fraction of empty galls / Fraction of small galls / Gall number / Galls per AR: MDCA/PA spray; for Fraction of empty galls / Fraction of small galls / Gall number / Galls per AR: median (interquartile range); for change of number of galls per root system, WRKY45 treated vs WRKY45 control: WRKY45-RNAi rice; for change of number of galls per root system, WT treated vs WT+CON: wild type rice
Experimental: (§1) Infection experiments with M. graminicola were performed by inoculating host plants 14 days after transfer to SAP by introducing the desired amount of J2 juveniles next to the root system using a micro pipette. Rice plants (cv. Nipponbare or Kitaake) were inoculated with 250 J2 juveniles per plant; wheat plants (cv. Sahara) were inoculated with 600 J2 juveniles per plant. Plants were harvested 14 days after inoculation. At this point, the plants were phenotyped by measuring the shoot and root length with a ruler, counting the number of adventitious roots and in some experiments by measuring leaf area using the EasyLeafArea software (Easlon and Bloom, 2014) and by determining shoot dry mass after 72 hours of drying in an oven at 70° C. Root systems were then stained in acid fuchsine as described in (Byrd et al., 1983) and left to destain in glycerol with 1 ml/l fuming HCl added for approximately ten days. The number of galls and nematodes was then counted using a binocular microscope.
To test the potential involvement of salicylic acid (SA) in MDCA/PA defense enhancement the response of MDCA/PA-treated RNAi-knockdown mutants in OsWRKY45 to nematode infection was examined. The OsWRKY proteins form a family of rice transcription factors that regulate a broad range of cellular processes, most of which are related to abiotic and biotic stress response (Jimmy and Babu, 2015). In keeping with their important role in defense, many OsWRKY genes are controlled by the plant defense hormones jasmonic acid and SA (Ryu et al., 2006; Jimmy and Babu, 2015).
OsWRKY45 is a master regulator of SA-induced defense responses. Knockdown lines in this gene are useful for testing whether MDCA/PA defense enhancement depends on SA signaling, as OsWRKY45 (unlike most other defense genes) is believed to be triggered only by SA (Ryu et al. 2006; incorporated by reference).
Galls were counted and classified by their size and by whether they were empty or not. The presence or absence of necrosis in the root system was also recorded.

OsWRKY45 = assay: qRT-PCR in rice roots, OsWRKY45 (Example 19); type: in vivo, Oryza sativa; settings: rice cv. Bomba root tissue; 100 μM; harvested 13 days after germination; N=3 pools
Experimental: (§2) After quality control, qPCR was carried out.

OsPAL6 = assay: qRT-PCR in rice roots, OsPAL6 (Example 19); type: in vivo, Oryza sativa; settings: rice cv. Bomba root tissue; 100 μM; harvested 13 days after germination; N=3 pools
Experimental: as §2

Meloidogyne graminicola [2] = assay: Meloidogyne graminicola infection in rice, first experiment (Example 3); type: in vivo; settings: infected rice, 100 μM, median (IQR), n = 8; for Gall number: harvested twelve days after infection; for Galls per AR: per adventitious root
Experimental: Seeds were germinated on wet tissue paper at 30° C. in the dark for three days, followed by transfer to individual PVC tubes (for nematode infection) containing SAP (Reversat et al., 1999). SAP (sand-absorbent polymer) is a mixture of fine silica sand and ultra-absorbent acrylic copolymer (DCM AquaPerla, DSM, Grobbendonk, Belgium) in a ratio of 1 kg sand to 1.5 g of dry copolymer.
Before use, each tube was washed in soapy water and dried in an oven at 70° C. for two days. […] The first two days after transfer, the tubes were covered with a polyethylene film (Saran Film, Dow Chemicals, Midland, USA) to prevent excessive evaporation. Seedlings were watered three times per week with 8 ml of Hoagland solution (Hoagland, 1938).
M. graminicola was extracted from infected Echinocloa crus-galli roots grown in potting soil at 25° C. Roots were washed until most soil was removed, after which they were cut into short fragments (with special care taken to cut open any outwardly visible galls). The cut material was put in […] pore diameter sieves which were put into a tap water bath at room temperature for three days. The water was then poured over a […] mesh sieve. The sieve surface was washed with approximately 50 ml of non-demineralized water, which was collected into a beaker before it could seep through the sieve.
The number of nematodes in five 100 μl samples taken from the nematode suspension was counted under a stereo microscope and averaged to determine inoculum concentration. Each plant (grown per the protocol outlined in the previous section) was then inoculated by injecting the desired number of nematodes in the SAP surrounding the root system using a micro-pipette.
as §1
Rice plants were germinated for three days, transferred to SAP and grown for twelve days. After twelve days, 240 M. graminicola J2 nematodes on average were added to each plant. Plants were harvested twelve days after infection and roots were stained with acid fuchsine to visualize galls and nematodes.

OsPAL2 = assay: qRT-PCR in rice roots, OsPAL2 (Example 19); type: in vivo, Oryza sativa; settings: rice cv. Bomba root tissue; 100 μM; harvested 13 days after germination; N=3 pools
Experimental: as §2

[3] = tested on: J2 juveniles of Heterodera schachtii; assay: In vitro nematode toxicity assay, H. schachtii J2 (Example 11); settings: PA 100 μM, Vertimec 0.02 v/v % abamectin, control 83.1±7.6
Experimental: J2 juveniles of Meloidogyne graminicola and Heterodera schachtii were isolated from Echinocloa cruss-galli roots and sugar beet roots respectively. Per treatment and species combination, 300 nematodes were isolated and divided over six wells that contained 1.5 ml of either sterilized tap water, a 100 μM C4H inhibitor solution or a 0.02 v/v % solution of the nematicide abamectin (Vertimec®, Syngenta AG). The nematodes were incubated in the dark on a slow-moving rotary shaker (50 rpm) and the number of living nematodes was counted regularly using a binocular microscope.
To rule out definitively that the compounds of the invention operate through direct toxicity to nematodes, an in vitro toxicity assay on J2 juveniles of the nematodes Meloidogyne graminicola and Heterodera schachtii was performed.
First, survival upon exposure to the C4H inhibitor piperonylic acid (PA) was compared to a negative control (tap water) and a positive control, the commercial nematicide Vertimec (0.02% Abamectin). A detailed survival curve is shown in FIG. 12a (M. graminicola) and FIG. 12b (H. schachtii).

OsGH3.1 = assay: qRT-PCR in rice roots, OsGH3.1 (Example 20); type: in vivo, Oryza sativa; settings: rice cv. Bomba root tissue; same samples as Example 19
Experimental: as §2
To test whether other defense hormones might be involved, genes responsive to jasmonic acid (the biosynthesis gene OsAOS2) and auxin (the auxin conjugating enzyme OsGH3.1) were investigated. Moreover, the callose-degrading enzyme OsGNS5, downregulation of which is associated with basal defense, was also investigated. The qRT-PCR analysis was performed on the same samples used in the previous Example.

[4] = tested on: Arabidopsis thaliana seedlings; assay: Primary root elongation of Arabidopsis thaliana seedlings (IC50-root); type: in vivo; settings: continuous exposure, unpublished data

Row | Structure (SMILES) | Likelihood of necrosis (Meloidogyne graminicola [1]; WRKY45-RNAi knockdown rice) | Fraction of empty galls (Meloidogyne graminicola [1]; WRKY45-RNAi knockdown rice) | Fraction of small galls (Meloidogyne graminicola [1]; WRKY45-RNAi knockdown rice) | Gall number (Meloidogyne graminicola [1]; WRKY45-RNAi knockdown rice) | Galls per AR (Meloidogyne graminicola [1]; WRKY45-RNAi knockdown rice) | change of number of galls per root system, WRKY45 treated vs WRKY45 control (Meloidogyne graminicola [1]) [%] | Likelihood of necrosis (Meloidogyne graminicola [1]; Wild type rice) | Fraction of empty galls (Meloidogyne graminicola [1]; Wild type rice) | Fraction of small galls (Meloidogyne graminicola [1]; Wild type rice) | Gall number (Meloidogyne graminicola [1]; Wild type rice) | Galls per AR (Meloidogyne graminicola [1]; Wild type rice) | change of number of galls per root system, WT treated vs WT+CON (Meloidogyne graminicola [1]) [%] | Fold change vs. control, OsWRKY45 expression (OsWRKY45) | Fold change vs. control, OsPAL6 expression (OsPAL6) | Gall number (Meloidogyne graminicola [2]) | Empty galls (Meloidogyne graminicola [2]) | Fraction of small galls (Meloidogyne graminicola [2]) | Number of J2 (Meloidogyne graminicola [2]) | Number of J3 + J4 (Meloidogyne graminicola [2]) | Number of adults (with eggs) (Meloidogyne graminicola [2]) | other results
1 | O=C(O)/C=C/c1ccc2c(c1)OCO2 [MDCA, 3,4-methylenedioxycinnamic acid] | 0.50 ± 0.53 | 0.09 (0.01) | 0.94 (0.03) | 52.0 (10.8) | 3.3 (0.7) | −23 | 0.63 ± 0.52 | 0.02 (0.04) | 0.86 (0.07) | 36.5 (10.3) | 2.3 (0.6) | −42 | 1.67 | 1.40 | 11.5 (IQR = 3.3) | 0.5 (IQR = 1.3) | 0.84 (IQR = 0.13) | 7.5 (IQR = 8.0) | 8.0 (IQR = 8.3) | 3.0 (IQR = 13.3) | Number of adults (without eggs) (Meloidogyne graminicola [2]): 20.0 (IQR = 7.3); Total nematodes (Meloidogyne graminicola [2]): 41.5 (IQR = 14.3); Galls per AR (Meloidogyne graminicola [2]): 0.78 (IQR = 0.22); Fold change vs. control, OsPAL2 expression (OsPAL2): 1.86
2 | O=C(O)c1ccc2c(c1)OCO2 [PA, Piperonylic acid] | 0.60 ± 0.52 | 0.02 (0.03) | 0.91 (0.05) | 39.0 (20.3) | 2.2 (0.8) | −41 | 0.78 ± 0.44 | 0.03 (0.03) | 0.93 (0.06) | 33.0 (10.0) | 1.8 (0.5) | −42 | 1.30 | 1.26 | 12.5 (IQR = 4.0) | 0.0 (IQR = 1.0) | 0.76 (IQR = 0.08) | 9.0 (IQR = 8.3) | 5.0 (IQR = 5.5) | 0.5 (IQR = 1.3) | survival after 24 hours of exposure [3]: 92.8±2.5%; Fold change vs. control, OsGH3.1 expression (OsGH3.1): 1.21; IC50 [4]: 40 µM; Number of adults (without eggs) (Meloidogyne graminicola [2]): 19.5 (IQR = 11.8); Total nematodes (Meloidogyne graminicola [2]): 32.5 (IQR = 17.8); Galls per AR (Meloidogyne graminicola [2]): 0.83 (IQR = 0.29); Fold change vs. control, OsPAL2 expression (OsPAL2): 1.29
